From the NIST ThermoML archive (doi:10.1021/acs.jced.9b00442)
± gives the expanded uncertainty stated by the source.

Details: 304.15 K; 100 kPa; Liquid; Vibrating tube method

Question: For `CC[N+](C)(CCO)CCO.O=S(=O)([N-]S(=O)(=O)C(F)(F)F)C(F)(F)F`, which mass density is on record?
Answer: Its mass density is 1509.8 ± 1.2 kg/m3.

Same assay, conditions: 305.15 K; 100 kPa; Liquid; Vibrating tube method

Question: For `C[N+](CCO)(CCO)CCO.O=S(=O)([N-]S(=O)(=O)C(F)(F)F)C(F)(F)F`, which mass density is on record?
Answer: The mass density was 1560.5 ± 1.2 kg/m3.

Question: With `CC[N+](CCO)(CCO)CCO.O=S(=O)([N-]S(=O)(=O)C(F)(F)F)C(F)(F)F` as the compound, how does the mass density read?
Answer: Its mass density is 1523.6 ± 1.2 kg/m3.

Question: With `CCCC[N+](CCO)(CCO)CCO.O=S(=O)([N-]S(=O)(=O)C(F)(F)F)C(F)(F)F` as the compound, how does the mass density read?
Answer: Its mass density is 1450.5 ± 1.2 kg/m3.

Question: For `CC[N+](C)(CCO)CCO.O=S(=O)([N-]S(=O)(=O)C(F)(F)F)C(F)(F)F`, which mass density is on record?
Answer: Its mass density is 1508.9 ± 1.2 kg/m3.

Same assay, conditions: 306.15 K; 100 kPa; Liquid; Vibrating tube method

Question: Which mass density does the source give for `C[N+](CCO)(CCO)CCO.O=S(=O)([N-]S(=O)(=O)C(F)(F)F)C(F)(F)F` here?
Answer: The mass density was 1559.6 ± 1.2 kg/m3.

Question: For `CC[N+](CCO)(CCO)CCO.O=S(=O)([N-]S(=O)(=O)C(F)(F)F)C(F)(F)F`, which mass density is on record?
Answer: The mass density was 1522.7 ± 1.2 kg/m3.

Question: For `CCCC[N+](CCO)(CCO)CCO.O=S(=O)([N-]S(=O)(=O)C(F)(F)F)C(F)(F)F`, which mass density is on record?
Answer: The mass density was 1449.7 ± 1.2 kg/m3.

Question: For `CC[N+](C)(CCO)CCO.O=S(=O)([N-]S(=O)(=O)C(F)(F)F)C(F)(F)F`, which mass density is on record?
Answer: Its mass density is 1508 ± 1.2 kg/m3.

Same assay, conditions: 307.15 K; 100 kPa; Liquid; Vibrating tube method

Question: For `C[N+](CCO)(CCO)CCO.O=S(=O)([N-]S(=O)(=O)C(F)(F)F)C(F)(F)F`, which mass density is on record?
Answer: Its mass density is 1558.7 ± 1.2 kg/m3.

Question: For `CC[N+](CCO)(CCO)CCO.O=S(=O)([N-]S(=O)(=O)C(F)(F)F)C(F)(F)F`, which mass density is on record?
Answer: Its mass density is 1521.9 ± 1.2 kg/m3.

Question: With `CCCC[N+](CCO)(CCO)CCO.O=S(=O)([N-]S(=O)(=O)C(F)(F)F)C(F)(F)F` as the compound, how does the mass density read?
Answer: Its mass density is 1448.8 ± 1.2 kg/m3.

Question: Which mass density does the source give for `CC[N+](C)(CCO)CCO.O=S(=O)([N-]S(=O)(=O)C(F)(F)F)C(F)(F)F` here?
Answer: The mass density was 1507.1 ± 1.2 kg/m3.

Same assay, conditions: 308.15 K; 100 kPa; Liquid; Concentric cylinders viscometry

Question: For `C[N+](CCO)(CCO)CCO.O=S(=O)([N-]S(=O)(=O)C(F)(F)F)C(F)(F)F`, which viscosity is on record?
Answer: The viscosity was 285.9 ± 13 mPa·s.

Question: With `CC[N+](CCO)(CCO)CCO.O=S(=O)([N-]S(=O)(=O)C(F)(F)F)C(F)(F)F` as the compound, how does the viscosity read?
Answer: The viscosity was 397.8 ± 19 mPa·s.

Question: Which viscosity does the source give for `CCCC[N+](CCO)(CCO)CCO.O=S(=O)([N-]S(=O)(=O)C(F)(F)F)C(F)(F)F` here?
Answer: Its viscosity is 484.5 ± 24 mPa·s.

Question: With `CC[N+](C)(CCO)CCO.O=S(=O)([N-]S(=O)(=O)C(F)(F)F)C(F)(F)F` as the compound, how does the viscosity read?
Answer: Its viscosity is 149 ± 6.3 mPa·s.

Same assay, conditions: 308.15 K; 100 kPa; Liquid; Frequency=0.0006 MHz; Alternating current cell with electrodes

Question: With `C[N+](CCO)(CCO)CCO.O=S(=O)([N-]S(=O)(=O)C(F)(F)F)C(F)(F)F` as the compound, how does the electrical conductivity read?
Answer: The electrical conductivity was 0.068 ± 0.001 S/m.

Question: For `CC[N+](CCO)(CCO)CCO.O=S(=O)([N-]S(=O)(=O)C(F)(F)F)C(F)(F)F`, which electrical conductivity is on record?
Answer: Its electrical conductivity is 0.052 ± 0.001 S/m.

Question: For `CCCC[N+](CCO)(CCO)CCO.O=S(=O)([N-]S(=O)(=O)C(F)(F)F)C(F)(F)F`, which electrical conductivity is on record?
Answer: The electrical conductivity was 0.034 ± 0.001 S/m.

Question: With `CC[N+](C)(CCO)CCO.O=S(=O)([N-]S(=O)(=O)C(F)(F)F)C(F)(F)F` as the compound, how does the electrical conductivity read?
Answer: Its electrical conductivity is 0.13 ± 0.003 S/m.

Same assay, conditions: 308.15 K; 100 kPa; Liquid; Vibrating tube method

Question: For `C[N+](CCO)(CCO)CCO.O=S(=O)([N-]S(=O)(=O)C(F)(F)F)C(F)(F)F`, which mass density is on record?
Answer: The mass density was 1557.8 ± 1.2 kg/m3.

Question: Which mass density does the source give for `CC[N+](CCO)(CCO)CCO.O=S(=O)([N-]S(=O)(=O)C(F)(F)F)C(F)(F)F` here?
Answer: Its mass density is 1521 ± 1.2 kg/m3.

Question: With `CCCC[N+](CCO)(CCO)CCO.O=S(=O)([N-]S(=O)(=O)C(F)(F)F)C(F)(F)F` as the compound, how does the mass density read?
Answer: Its mass density is 1447.9 ± 1.2 kg/m3.

Question: Which mass density does the source give for `CC[N+](C)(CCO)CCO.O=S(=O)([N-]S(=O)(=O)C(F)(F)F)C(F)(F)F` here?
Answer: The mass density was 1506.2 ± 1.2 kg/m3.

Same assay, conditions: 309.15 K; 100 kPa; Liquid; Vibrating tube method

Question: For `C[N+](CCO)(CCO)CCO.O=S(=O)([N-]S(=O)(=O)C(F)(F)F)C(F)(F)F`, which mass density is on record?
Answer: The mass density was 1556.9 ± 1.2 kg/m3.

Question: For `CC[N+](CCO)(CCO)CCO.O=S(=O)([N-]S(=O)(=O)C(F)(F)F)C(F)(F)F`, which mass density is on record?
Answer: Its mass density is 1520.1 ± 1.2 kg/m3.

Question: For `CCCC[N+](CCO)(CCO)CCO.O=S(=O)([N-]S(=O)(=O)C(F)(F)F)C(F)(F)F`, which mass density is on record?
Answer: The mass density was 1447.1 ± 1.2 kg/m3.

Question: Which mass density does the source give for `CC[N+](C)(CCO)CCO.O=S(=O)([N-]S(=O)(=O)C(F)(F)F)C(F)(F)F` here?
Answer: The mass density was 1505.3 ± 1.2 kg/m3.

Same assay, conditions: 310.15 K; 100 kPa; Liquid; Vibrating tube method

Question: Which mass density does the source give for `C[N+](CCO)(CCO)CCO.O=S(=O)([N-]S(=O)(=O)C(F)(F)F)C(F)(F)F` here?
Answer: Its mass density is 1556 ± 1.2 kg/m3.

Question: For `CC[N+](CCO)(CCO)CCO.O=S(=O)([N-]S(=O)(=O)C(F)(F)F)C(F)(F)F`, which mass density is on record?
Answer: The mass density was 1519.2 ± 1.2 kg/m3.

Question: With `CCCC[N+](CCO)(CCO)CCO.O=S(=O)([N-]S(=O)(=O)C(F)(F)F)C(F)(F)F` as the compound, how does the mass density read?
Answer: The mass density was 1446.2 ± 1.2 kg/m3.

Question: For `CC[N+](C)(CCO)CCO.O=S(=O)([N-]S(=O)(=O)C(F)(F)F)C(F)(F)F`, which mass density is on record?
Answer: Its mass density is 1504.4 ± 1.2 kg/m3.

Same assay, conditions: 311.15 K; 100 kPa; Liquid; Vibrating tube method

Question: Which mass density does the source give for `C[N+](CCO)(CCO)CCO.O=S(=O)([N-]S(=O)(=O)C(F)(F)F)C(F)(F)F` here?
Answer: Its mass density is 1555.1 ± 1.2 kg/m3.

Question: Which mass density does the source give for `CC[N+](CCO)(CCO)CCO.O=S(=O)([N-]S(=O)(=O)C(F)(F)F)C(F)(F)F` here?
Answer: Its mass density is 1518.4 ± 1.2 kg/m3.

Question: For `CCCC[N+](CCO)(CCO)CCO.O=S(=O)([N-]S(=O)(=O)C(F)(F)F)C(F)(F)F`, which mass density is on record?
Answer: Its mass density is 1445.4 ± 1.1 kg/m3.

Question: With `CC[N+](C)(CCO)CCO.O=S(=O)([N-]S(=O)(=O)C(F)(F)F)C(F)(F)F` as the compound, how does the mass density read?
Answer: The mass density was 1503.5 ± 1.2 kg/m3.

Same assay, conditions: 312.15 K; 100 kPa; Liquid; Vibrating tube method

Question: With `C[N+](CCO)(CCO)CCO.O=S(=O)([N-]S(=O)(=O)C(F)(F)F)C(F)(F)F` as the compound, how does the mass density read?
Answer: Its mass density is 1554.2 ± 1.2 kg/m3.

Question: For `CC[N+](CCO)(CCO)CCO.O=S(=O)([N-]S(=O)(=O)C(F)(F)F)C(F)(F)F`, which mass density is on record?
Answer: The mass density was 1517.5 ± 1.2 kg/m3.

Question: Which mass density does the source give for `CCCC[N+](CCO)(CCO)CCO.O=S(=O)([N-]S(=O)(=O)C(F)(F)F)C(F)(F)F` here?
Answer: Its mass density is 1444.5 ± 1.1 kg/m3.

Question: Which mass density does the source give for `CC[N+](C)(CCO)CCO.O=S(=O)([N-]S(=O)(=O)C(F)(F)F)C(F)(F)F` here?
Answer: Its mass density is 1502.6 ± 1.2 kg/m3.

Same assay, conditions: 313.15 K; 100 kPa; Liquid; Concentric cylinders viscometry

Question: For `C[N+](CCO)(CCO)CCO.O=S(=O)([N-]S(=O)(=O)C(F)(F)F)C(F)(F)F`, which viscosity is on record?
Answer: The viscosity was 211.1 ± 9.3 mPa·s.

Question: Which viscosity does the source give for `CC[N+](CCO)(CCO)CCO.O=S(=O)([N-]S(=O)(=O)C(F)(F)F)C(F)(F)F` here?
Answer: Its viscosity is 280.3 ± 13 mPa·s.

Question: For `CCCC[N+](CCO)(CCO)CCO.O=S(=O)([N-]S(=O)(=O)C(F)(F)F)C(F)(F)F`, which viscosity is on record?
Answer: The viscosity was 340.8 ± 16 mPa·s.

Question: With `CC[N+](C)(CCO)CCO.O=S(=O)([N-]S(=O)(=O)C(F)(F)F)C(F)(F)F` as the compound, how does the viscosity read?
Answer: Its viscosity is 112.6 ± 4.7 mPa·s.

Same assay, conditions: 313.15 K; 100 kPa; Liquid; Frequency=0.0006 MHz; Alternating current cell with electrodes

Question: Which electrical conductivity does the source give for `C[N+](CCO)(CCO)CCO.O=S(=O)([N-]S(=O)(=O)C(F)(F)F)C(F)(F)F` here?
Answer: Its electrical conductivity is 0.09 ± 0.002 S/m.

Question: Which electrical conductivity does the source give for `CC[N+](CCO)(CCO)CCO.O=S(=O)([N-]S(=O)(=O)C(F)(F)F)C(F)(F)F` here?
Answer: Its electrical conductivity is 0.07 ± 0.002 S/m.

Question: With `CCCC[N+](CCO)(CCO)CCO.O=S(=O)([N-]S(=O)(=O)C(F)(F)F)C(F)(F)F` as the compound, how does the electrical conductivity read?
Answer: The electrical conductivity was 0.046 ± 0.001 S/m.

Question: For `CC[N+](C)(CCO)CCO.O=S(=O)([N-]S(=O)(=O)C(F)(F)F)C(F)(F)F`, which electrical conductivity is on record?
Answer: Its electrical conductivity is 0.165 ± 0.003 S/m.

Same assay, conditions: 313.15 K; 100 kPa; Liquid; Vibrating tube method

Question: With `C[N+](CCO)(CCO)CCO.O=S(=O)([N-]S(=O)(=O)C(F)(F)F)C(F)(F)F` as the compound, how does the mass density read?
Answer: The mass density was 1553.3 ± 1.2 kg/m3.
